Values of other authors in US12521484B2, “Irrigation system and methods of use” (Osteal Therapeutics, Inc., priority 2023, dated 2026).

Tests used:
[1] = tested on: multiple common PJI organisms
[2] = instillation of 50,000-100,000 μg/mL once or twice daily into the joint space; multiple patients

In the case of `CN[C@H](CC(C)C)C(=O)N[C@H]1C(=O)N[C@@H](CC(N)=O)C(=O)N[C@H]2C(=O)N[C@H]3C(=O)N[C@H](C(=O)N[C@H](C(=O)O)c4cc(O)cc(O)c4-c4cc3ccc4O)[C@H](O)c3ccc(c(Cl)c3)Oc3cc2cc(c3O[C@@H]2O[C@H](CO)[C@@H](O)[C@H](O)[C@H]2O[C@H]2C[C@](C)(N)[C@H](O)[C@H](C)O2)Oc2ccc(cc2Cl)[C@H]1O` [vancomycin], the “minimum biofilm eradication concentration (MBEC)” value [1] is given as “greater than 4,000 μg/mL” and the serum concentrations [2] is given as “exceeding safe limits”.
